Measured values as given in patent publication US10822325B2, “Human GLUT5 specific inhibitors and methods of treatment” (UNM RAINFOREST INNOVATIONS, priority 2015, dated 2020).
Residue numbers refer to the chain shown, from its start. Entries after “also recorded” stand apart in the source; their conditions may differ.

Experiments:
human GLUT1 = biological target: T1, human GLUT1 (Homo sapiens, UniProt P11166); assay: Glucose entrance counter-flow transport in GLUT1 proteoliposomes; assay type: biochemical; details: 2 mM compound, one minute
T1 construct: Full length DNA was subcloned into pFastBac1 (Life Technologies) vector with a N-terminal hexahistidine tag; hexahistidine (N); made in house; host or cells: Sf21 insect cells (baculovirus, pFastBac1)
T1 sequence (P11166 1-492): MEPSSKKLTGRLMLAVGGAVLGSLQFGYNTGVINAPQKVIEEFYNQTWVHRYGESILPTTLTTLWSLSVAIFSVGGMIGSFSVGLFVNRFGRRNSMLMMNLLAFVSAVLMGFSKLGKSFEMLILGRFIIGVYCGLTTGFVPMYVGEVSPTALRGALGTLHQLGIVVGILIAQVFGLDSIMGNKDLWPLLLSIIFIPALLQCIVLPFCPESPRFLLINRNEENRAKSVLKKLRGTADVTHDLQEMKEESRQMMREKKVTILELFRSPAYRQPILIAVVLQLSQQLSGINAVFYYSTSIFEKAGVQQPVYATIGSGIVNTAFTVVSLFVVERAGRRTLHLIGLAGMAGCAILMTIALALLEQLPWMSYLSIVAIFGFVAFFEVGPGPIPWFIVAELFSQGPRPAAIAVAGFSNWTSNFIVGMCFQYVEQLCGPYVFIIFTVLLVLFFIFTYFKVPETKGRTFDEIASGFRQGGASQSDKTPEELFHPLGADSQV
Method: (§1) cDNAs of GLUT1, 3, 4 and 5 were purchased from Open Biosystems (GE Healthcare). cDNAs of GLUT2 was a gift from Prof. Graeme Bell at University of Chicago. Full length DNA was subcloned into pFastBac1 (Life Technologies) vector with a N-terminal hexahistidine tag. Bacmids were generated in DH10Bac E. coli cells (Life Technologies). Baculoviruses were produced using Cellfectin II Reagent and amplified in Sf21 insect cells (Life Technologies). Cells were maintained at 26° C., and P1 (10^6 pfu/mL) was collected from infected cells after 72 hours. SF21 cells were propagated in HyClone SFX-Insect media (GE Healthcare), supplemented with 5% fetal bovine serum (Biowest), 4.8 mM glutamine, antibiotics (100 units/mL Penicillin G and 100 μg/mL streptomycin sulfate) and amphotericin B (2.5 μg/mL). […]
(§2) For the entrance counterflow transport in proteoliposomes, the assay was started by the addition of 5 μL proteoliposomes solution (OD600 nm ˜30) to 200 μL, assay solution, containing 10 μM ^14C-radiolabeled glucose (for GLUT1 wild-type or F379H mutant and GLUT2-4) or fructose (for GLUT5 wild-type or H387F mutant and GLUT2) (Moravek Biochemicals) in 100 mM KPi buffer at pH 7.5. After one minute (or different specified time points when the time-dependent counter-flow transport activity was measured), the transport was stopped with ice-chilled quench buffer [0.1 M KPi (pH 5.5) and 0.1 M lithium chloride].

GLUT1F379H = biological target: T2, GLUT1F379H (Homo sapiens, UniProt P11166, F379H); assay: Glucose entrance counter-flow transport in GLUT1F379H mutant proteoliposomes; assay type: biochemical; details: 2 mM compound
T2 construct: Full length DNA was subcloned into pFastBac1 (Life Technologies) vector with a N-terminal hexahistidine tag; hexahistidine (N); made in house; host or cells: Sf21 insect cells (baculovirus, pFastBac1)
T2 sequence (P11166 1-492 F379H): T1 sequence (P11166 1-492) with F379H
Method: as §1, §2

CS(=O)(=O)c1ccc(Nc2ccc3c(c2)OCO3)c([N+](=O)[O-])c1 [MSNBA, N-[4-(methylsulfonyl)-2-nitrophenyl]-1,3-benzodioxol-5-amine]
effect on GLUT1 glucose transport (human GLUT1): did not affect; also recorded: did not influence
effect on GLUT1F379H glucose transport (GLUT1F379H): remained insensitive; also recorded: remained unaffected

O=C(CCc1ccc(O)cc1)c1c(O)cc(O)cc1O [phloretin, reference compound]
effect on GLUT1 glucose transport (human GLUT1): inhibited
effect on GLUT1F379H glucose transport (GLUT1F379H): no longer inhibited; also recorded: ceased to inhibit
